Each block holds one molecule with its values, some of them ahead of it.
Tests used:
[1] = molecular target: Acetylcholinesterase (Homo sapiens, UniProt P22303); test: Concentration required for the inhibition of acetylcholinesterase
[2] = Aqueous solubility; format: physicochemical; details: water; for solubility: read-out: S
[3] = Aqueous solubility

Sequence of Acetylcholinesterase (P22303 whole entry): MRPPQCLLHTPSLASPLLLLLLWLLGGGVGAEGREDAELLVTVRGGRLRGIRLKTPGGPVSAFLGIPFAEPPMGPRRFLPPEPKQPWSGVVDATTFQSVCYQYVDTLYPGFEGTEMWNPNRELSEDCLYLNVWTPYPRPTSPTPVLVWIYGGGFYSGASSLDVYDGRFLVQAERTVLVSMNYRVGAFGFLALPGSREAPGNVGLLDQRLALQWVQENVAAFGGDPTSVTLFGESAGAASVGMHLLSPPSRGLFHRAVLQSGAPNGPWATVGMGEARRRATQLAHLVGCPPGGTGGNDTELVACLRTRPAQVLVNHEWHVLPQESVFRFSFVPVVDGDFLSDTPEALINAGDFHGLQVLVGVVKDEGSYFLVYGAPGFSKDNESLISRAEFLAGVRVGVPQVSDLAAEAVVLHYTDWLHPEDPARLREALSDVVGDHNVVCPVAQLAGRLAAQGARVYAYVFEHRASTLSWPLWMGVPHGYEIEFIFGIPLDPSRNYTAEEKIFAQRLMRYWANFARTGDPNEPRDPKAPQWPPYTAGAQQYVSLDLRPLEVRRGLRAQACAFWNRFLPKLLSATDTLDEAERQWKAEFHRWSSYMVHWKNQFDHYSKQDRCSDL

Compound: COC(=O)C[N+]1(C)CCC(CCC(=O)c2cc3cc(OC)c(OC)cc3s2)CC1.[Br-] (stereo not drawn)
IC50 [1]: 54 nM
solubility [2]: 60000 µg/mL

solubility [2]: 2000 µg/mL
Compound: COc1cc2cc(C(=O)CCC3CC[N+](C)(Cc4ccccc4)CC3)sc2cc1OC.[Br-] (stereo not drawn)

Compound: COc1cc2cc(C(=O)CCc3cc[n+](CC4CC4)cc3)sc2cc1OC.[Br-]
IC50 [1]: 110 nM
solubility [2]: 15000 µg/mL

Compound: COc1cc2cc(C(=O)CCc3cc[n+](CC4CCC4)cc3)sc2cc1OC.[Br-]
IC50 [1]: 40 nM
solubility [2]: 6000 µg/mL

Compound: COc1cc2cc(C(=O)CCC3CC[N+](C)(CC#N)CC3)sc2cc1OC.[Br-] (stereo not drawn)
IC50 [1]: > 1000 nM
solubility [2]: 2000 µg/mL

Compound: COc1cc2cc(C(=O)CCc3cc[n+](Cc4ccc([N+](=O)[O-])o4)cc3)sc2cc1OC.[Br-]
IC50 [1]: 4.5 nM
solubility [2]: 35000 µg/mL

Compound: COc1cc2cc(C(O)C3CC[N+](C)(Cc4ccccc4)CC3)sc2cc1OC.[Br-] (stereo not drawn)
IC50 [1]: 19600 nM
solubility [2]: 2000 µg/mL

Compound: COc1cc2cc(C(=O)CCc3cc[n+](Cc4ccsc4)cc3)sc2cc1OC
IC50 [1]: 6 nM
solubility [2]: 2000 µg/mL

Compound: COc1cc2cc(C(=O)CCc3cc[n+](Cc4ccccc4)cc3)sc2cc1OC
solubility [2]: 2000 µg/mL

Compound: COc1cc2cc(C(=O)C=C3CC[N+](C)(Cc4ccccc4)CC3)sc2cc1OC.[Br-] (stereo not drawn)
IC50 [1]: 520 nM
solubility [2]: 25000 µg/mL

Compound: COc1cc2cc(C(=O)CC(O)C3CC[N+](C)(Cc4ccccc4)CC3)sc2cc1OC.[Br-] (stereo in doubt; 6)
IC50 [1]: 43 nM
S [2]: 10 mg/mL

Compound: C=CC[n+]1ccc(CCC(=O)c2cc3cc(OC)c(OC)cc3s2)cc1.[Br-]
IC50 [1]: 540 nM
solubility [2]: 25000 µg/mL

Compound: COc1cc2cc(C(=O)CCC3CC[N+](C)(CC(=O)OC(C)(C)C)CC3)sc2cc1OC.[Br-] (stereo not drawn)
IC50 [1]: 79 nM
solubility [2]: 1500 µg/mL

solubility [2]: 16000 µg/mL
Compound: CCC[n+]1ccc(CCC(=O)c2cc3cc(OC)c(OC)cc3s2)cc1.[Br-]

Compound: COc1cc2cc(C(=O)CCc3cc[n+](C)cc3)sc2cc1OC.[Br-]
IC50 [1]: 900 nM
solubility [2]: 3000 µg/mL

Compound: COc1cc2cc(C(=O)CC(OC)C3CC[N+](C)(Cc4ccccc4)CC3)sc2cc1OC.[Br-] (stereo not drawn)
IC50 [1]: 120 nM
solubility [2]: 1500 µg/mL

Compound: COc1cc2cc(C(=O)CCCCC3CC[N+](C)(Cc4ccccc4)CC3)sc2cc1OC.[Br-] (stereo not drawn)
IC50 [1]: 110 nM
solubility [2]: 1000 µg/mL

Compound: COc1cc2cc(C(=O)CCc3cc[n+](Cc4ccc(F)cc4)cc3)sc2cc1OC
IC50 [1]: 2.6 nM
solubility [2]: 1000 µg/mL

Compound: COc1cc2cc(C(=O)CCC3CC[N+](C)(CC4CCCCO4)CC3)sc2cc1OC.[Br-] (stereo not drawn)
IC50 [1]: 28 nM
solubility [2]: 1500 µg/mL

Compound: COc1cc2cc(C=C3CC[N+](C)(Cc4ccccc4)CC3)sc2cc1OC.[Br-] (stereo not drawn)
IC50 [1]: 2670 nM
solubility [2]: 1000 µg/mL

Compound: COC(=O)c1ccc(C[n+]2ccc(CCC(=O)c3cc4cc(OC)c(OC)cc4s3)cc2)cc1
solubility [2]: 3500 µg/mL

Compound: COc1cc2cc(C(=O)CC(O)C3CC[N+](C)(Cc4ccccc4)CC3)sc2cc1OC (stereo in doubt; 9) [listing 1 of 2 here]
IC50 [1]: 190 nM

Compound: COc1cc2cc(C(=O)CC3=CC[N+](C)(Cc4ccccc4)CC3)sc2cc1OC.[Br-] (stereo not drawn)
IC50 [1]: 750 nM
solubility [2]: 20000 µg/mL

Compound: COc1cc2cc(C(=O)CCC3CC[N+](C)(Cc4ccc([N+](=O)[O-])o4)CC3)sc2cc1OC.[Br-] (stereo not drawn)
IC50 [1]: 32 nM
solubility [2]: 600 µg/mL

Compound: COc1cc2cc(C(=O)CC(O)CCC3CC[N+](C)(Cc4ccccc4)CC3)sc2cc1OC.[Br-] (stereo not drawn)
IC50 [1]: 380 nM
solubility [2]: 2500 µg/mL

Compound: COc1cc2cc(C(=O)CC(O)C3CC[N+](C)(Cc4ccccc4)CC3)sc2cc1OC (stereo in doubt; 9) [listing 2 of 2 here]
Solubility [3]: 10000 µg/mL

Compound: COc1cc2cc(C(=O)CCC3CC[N+](C)(CCOc4ccccc4)CC3)sc2cc1OC.[Br-] (stereo not drawn)
IC50 [1]: 390 nM
solubility [2]: 900 µg/mL

Compound: COc1cc2cc(C(=O)CC(O)C3CC[N+](C)(Cc4ccccc4)CC3)sc2cc1OC.[Br-] (single isomer, unassigned; (-))
IC50 [1]: 665 nM
S [2]: 8 mg/mL

Compound: COCC[n+]1ccc(CCC(=O)c2cc3cc(OC)c(OC)cc3s2)cc1
IC50 [1]: 30 nM
solubility [2]: 33000 µg/mL

Compound: COCC[N+]1(C)CCC(CCC(=O)c2cc3cc(OC)c(OC)cc3s2)CC1.[Br-] (stereo not drawn)
IC50 [1]: 53 nM
solubility [2]: 60000 µg/mL

Compound: CC[n+]1ccc(CCC(=O)c2cc3cc(OC)c(OC)cc3s2)cc1.[Br-]
IC50 [1]: 280 nM
solubility [2]: 25000 µg/mL

Compound: COc1cc2cc(C(=O)CC3(O)CC[N+](C)(Cc4ccccc4)CC3)sc2cc1OC.[Br-] (stereo not drawn)
solubility [2]: 1250 µg/mL

Compound: COc1cc2cc(CC3CC[N+](C)(Cc4ccccc4)CC3)sc2cc1OC.[Br-] (stereo not drawn)
IC50 [1]: 10000 nM
solubility [2]: 3000 µg/mL

Compound: COc1cc2cc(C(=O)CC(O)C3CC[N+](C)(Cc4ccccc4)CC3)sc2cc1OC.[Br-] (single isomer, unassigned; (+))
IC50 [1]: 219 nM
solubility [2]: 10000 µg/mL

Compound: CCOCC[n+]1ccc(CCC(=O)c2cc3cc(OC)c(OC)cc3s2)cc1
IC50 [1]: 7 nM
solubility [2]: 50000 µg/mL

Source: ChEMBL document CHEMBL1135325, “Novel piperidinium and pyridinium agents as water-soluble acetylcholinesterase inhibitors for the reversal of neuromuscular blockade” (Bioorg Med Chem Lett, 2002)
